# Laboratory results as given in patent US20160296437A1, “ORAL CARE ZINC COMPOSITIONS” (COLGATE-PALMOLIVE COMPANY, priority 2013, published 2016).
# Assays:
# [1] = tested on: Actinobacillus actinomycetemcomitans (Aa) ATCC cat#29522; assay: Bacterial invasion of human periodontal ligament fibroblasts by Actinobacillus actinomycetemcomitans (internalized colony count); format: cell-based; conditions: for reduces internalized Actinobacillus actinomycetemcomitans: versus Aa alone, HPdLF cells
# Protocol: (§1) Human periodontal ligament fibroblasts (HPdLF, Lonza cat#CC-7049) are seeded onto a plate and incubated at 37° C. in 5% CO2 overnight using SCGM bullet kit (Lonza, #CC-3205) containing Stromal cell basal medium, hFGF-B, insulin, FBS and GA-1000.
# (§2) Pathogenic bacteria Actinobacillus actinomycetemcomitans (Aa) ATCC cat#29522 or Porphyromonas gingivalis (Pg) ATCC cat#33277) are incubated overnight at 37° C. (using tryptic soy broth for Actinobacillus actinomycetemcomitans and half-strength brain heart infusion (supplemented with yeast extract, hemin and vitK1) for Porphyromonas gingivalis). The optical density (OD) at 610 nm is read. The bacteria are centrifuged at 8000 rpm for 10 mins and the pellet resuspended in cell culture media and diluted to OD610 of 0.1 to 0.2.
# (§3) The test sample (dissolved in water) is added to the cells and incubated at 37 C in 5% CO2 incubator for 30 minutes before the bacteria are added. The cells are infected with bacteria by adding the resuspended bacteria to the cells and further incubating at 37° C. in 5% CO2 incubator for 90 to 120 minutes.
# The cells are washed five times with PBS to remove non-adherent bacteria. Fresh cell culture medium containing 1× penicillin (100 IU) and streptomycin (100 μg/ml) is added and the cells incubated at 37° C. in 5% CO2 incubator for 2 hours to kill extracellular bacteria. The medium is then removed and the cells washed three times with PBS. 1 ml 1% saponin solution in PBS is added to the infected cells for 5 minutes at. 37° C. to lyse the cells and release internalized bacteria. Dilutions (serial dilutions in PBS with dilution factor 10) are plated onto a suitable medium using a 100 μl sample and spread with a sterilized stick before incubating in an anaerobic chamber at 37° C. for 2-3 days and counting the resultant bacterial colonies.
# [2] = tested on: Porphyromonas gingivalis (Pg) ATCC cat#33277; assay: Bacterial invasion of human periodontal ligament fibroblasts by Porphyromonas gingivalis (internalized colony count); format: cell-based
# Protocol: as §1, §2, §3
# The cells are washed five times with PBS to remove non-adherent bacteria. Fresh cell culture medium containing 1× penicillin (100 IU) and streptomycin (100 μg/ml) is added and the cells incubated at 37° C. in 5% CO2 incubator for 2 hours to kill extracellular bacteria. […]
SMILES,"Bacterial Count ([1]; Table 2, internalized Aa in HPdLF cells, sample at 8 ppm, Aa alone 178)","reduces internalized Actinobacillus actinomycetemcomitans ([1]; Table 2 experiment, at 8 ppm)","Bacterial Count ([1]; Table 1, internalized Aa in HPdLF cells pretreated 30 minutes with sample, ZnO concentration not given, Aa alone 11800)",reduces internalized Actinobacillus actinomycetemcomitans ([1]; Table 1 experiment),"Bacterial Count ([1]; Table 2, internalized Aa in HPdLF cells, sample at 4 ppm, Aa alone 178)","reduces internalized Actinobacillus actinomycetemcomitans ([1]; Table 2 experiment, at 4 ppm)","Bacterial Count ([2]; Table 1, internalized Pg in HPdLF cells pretreated 30 minutes with sample, ZnO concentration not given, Pg alone 11460)","reduces internalized Porphyromonas gingivalis ([2]; Table 1 experiment, versus Pg alone, HPdLF cells)"
"O=C([O-])CC(O)(CC(=O)[O-])C(=O)[O-].O=C([O-])CC(O)(CC(=O)[O-])C(=O)[O-].[Zn+2].[Zn+2].[Zn+2] [ZnCitrate, zinc citrate]",64,approximately 66%,–,–,–,–,–,–
"[O]=[Zn] [ZnO, zinc oxide]",–,–,10040,approximately 15%,137,approximately 23%,10760,approximately 6%
